Laboratory results published in US8242174B2 (priority 2007, dated 2012).
pKi: −log10 of the molar value.

The compounds below were run against Lethal factor protease (Bacillus anthracis, UniProt P15917) (assay: biochemical).
Lethal factor protease, sequence (P15917 34-809 limits assumed): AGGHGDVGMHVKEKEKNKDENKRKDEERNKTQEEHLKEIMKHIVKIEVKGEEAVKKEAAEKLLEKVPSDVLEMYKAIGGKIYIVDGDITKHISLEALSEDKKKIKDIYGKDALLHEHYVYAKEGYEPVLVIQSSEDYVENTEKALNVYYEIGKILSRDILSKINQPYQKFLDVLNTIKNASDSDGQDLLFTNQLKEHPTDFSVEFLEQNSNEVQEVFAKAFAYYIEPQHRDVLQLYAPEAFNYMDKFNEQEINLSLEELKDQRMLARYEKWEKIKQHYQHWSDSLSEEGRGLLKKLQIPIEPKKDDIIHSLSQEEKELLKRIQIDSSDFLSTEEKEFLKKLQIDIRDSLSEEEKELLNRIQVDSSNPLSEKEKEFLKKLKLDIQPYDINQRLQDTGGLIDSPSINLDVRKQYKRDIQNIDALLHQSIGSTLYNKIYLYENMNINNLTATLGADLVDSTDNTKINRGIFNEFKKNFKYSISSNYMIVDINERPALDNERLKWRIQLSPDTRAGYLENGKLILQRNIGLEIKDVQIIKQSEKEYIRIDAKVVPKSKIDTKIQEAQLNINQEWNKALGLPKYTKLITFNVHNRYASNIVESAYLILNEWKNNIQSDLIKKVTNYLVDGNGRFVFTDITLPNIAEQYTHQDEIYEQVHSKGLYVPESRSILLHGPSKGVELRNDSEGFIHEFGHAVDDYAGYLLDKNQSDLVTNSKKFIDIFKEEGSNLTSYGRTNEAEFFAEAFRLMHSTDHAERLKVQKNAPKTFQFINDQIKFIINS

| Compound | pKi |
| --- | --- |
| CC(=O)NCCCC[C@@H](Nc1cc(C)c(F)c(C)c1)C(=O)NO [Compound 167552, (R)-6-Acetylamino-2-(4-fluoro-3,5-dimethyl-phenylamino)-hexanoic acid hydroxyamide] | 5.60 |
| Cc1cc(NC(C)C(=O)NO)ccc1F (stereo not drawn) [Compound 167235, 2-(4-Fluoro-3-methyl-phenylamino)-N-hydroxy-propionamide] | 5.85 |
| Cc1cc(N[C@H](CCCCNS(=O)(=O)c2ccccc2)C(=O)NO)cc(C)c1F [Compound 167615, (R)-6-Benzenesulfonylamino-2-(4-fluoro-3,5-dimethyl-phenylamino)-hexanoic acid hydroxyamide] | 6.08 |
| CCCCC(Nc1cc(C)cc(C)c1)C(=O)NO (stereo not drawn) [Compound 167226, 2-(3,5-Dimethyl-phenylamino)-hexanoic acid hydroxyamide] | 5.13 |
| Cc1cc(COCCCC[C@@H](Nc2cc(C)c(F)c(C)c2)C(=O)NO)ccc1F [Compound 168116, (R)-2-(4-Fluoro-3,5-dimethyl-phenylamino)-6-(4-fluoro-3-methyl-benzyloxy)-hexanoic acid hydroxyamide] | 6.15 |
| Cc1cc(N[C@H](CCCCN(Cc2ccccc2)Cc2ccccc2)C(=O)NO)ccc1F [Compound 167982, (R)-6-Dibenzylamino-2-(4-fluoro-3-methyl-phenylamino)-hexanoic acid hydroxyamide] | 5.74 |
| CCCCC(Nc1cc(C)c(OC)c(C)c1)C(=O)NO (stereo not drawn) [Compound 167325, 2-(4-Methoxy-3,5-dimethyl-phenylamino)-hexanoic acid hydroxyamide] | 4.52 |
| Cc1cc(N[C@H](CCCCNS(=O)(=O)c2ccc(F)cc2)C(=O)NO)cc(C)c1F [Compound 167589, (R)-6-(4-Fluoro-benzenesulfonylamino)-2-(4-fluoro-3,5-dimethyl-phenylamino)-hexanoic acid hydroxyamide] | 5.90 |
| Cc1cc(NC(C(=O)NO)c2ccccc2)ccc1F (stereo not drawn) [Compound 167228, 2-(4-Fluoro-3-methyl-phenylamino)-N-hydroxy-2-phenyl-acetamide] | 5.55 |
| Cc1cc(NC(C)C(=O)NO)cc(C)c1F (stereo not drawn) [Compound 167486, 2-(4-Fluoro-3,5-dimethyl-phenylamino)-N-hydroxy-propionamide] | 6.16 |
| Cc1cc(NC(CCC(F)(F)F)C(=O)NO)cc(C)c1F (stereo not drawn) [Compound 167482, 5,5,5-Trifluoro-2-(4-fluoro-3,5-dimethyl-phenylamino)-pentanoic acid hydroxyamide] | 5.96 |
| CCCC[C@H](Nc1ccc(F)c(C)c1)C(=O)NO [Compound 167274, (S)-2-(4-Fluoro-3-methyl-phenylamino)-hexanoic acid hydroxyamide] | 3.94 |
| Cc1cc(N[C@H](CCCCNCc2ccc(Cl)s2)C(=O)NO)ccc1F [Compound 168008, (R)-6-[(5-Chloro-thiophen-2-ylmethyl)-amino]-2-(4-fluoro-3-methyl-phenylamino)-hexanoic acid hydroxyamide] | 7.22 |
| Cc1cc(N[C@H](CC(C)C)C(=O)NO)cc(C)c1F [Compound 167402, (R)-2-(4-Fluoro-3,5-dimethyl-phenylamino)-4-methyl-pentanoic acid hydroxyamide] | 6.17 |
| Cc1cc(N[C@H](C)C(=O)NO)ccc1F [Compound 167392, (R)-2-(4-Fluoro-3-methyl-phenylamino)-N-hydroxy-propionamide] | 6.02 |
| CCCCC(Nc1cccc(OC)c1)C(=O)NO (stereo not drawn) [Compound 167276, 2-(3-Methoxy-phenylamino)-hexanoic acid hydroxyamide] | 3.85 |
| CCCCC(Nc1ccc(F)c(OC)c1)C(=O)NO (stereo not drawn) [Compound 167793, 2-(4-Fluoro-3-methoxy-phenylamino)-hexanoic acid hydroxyamide] | 3.80 |
| Cc1cc(N[C@H](CCCCNC(C)c2ccc(F)cc2)C(=O)NO)ccc1F (stereo partly drawn) [Compound 168010, (R)-2-(4-Fluoro-3-methyl-phenylamino)-6-[1-(4-fluoro-phenyl)-ethylamino]-hexanoic acid hydroxyamide] | 7.15 |
| CCCCC(Nc1cc(C)cc(F)c1)C(=O)NO (stereo not drawn) [Compound 167722, 2-(3-Fluoro-5-methyl-phenylamino)-hexanoic acid hydroxyamide] | 4.72 |
| CCC[C@@H](Nc1cc(C)c(F)c(C)c1)C(=O)NO [Compound 167391, (R)-2-(4-Fluoro-3,5-dimethyl-phenylamino)-pentanoic acid hydroxyamide] | 6.30 |
| CCCCC(Nc1ccccc1OC)C(=O)NO (stereo not drawn) [Compound 167293, 2-(2-Methoxy-phenylamino)-hexanoic acid hydroxyamide] | < 3.52 |
| CNc1cccc(S(=O)(=O)NCCCC[C@@H](Nc2cc(C)c(F)c(C)c2)C(=O)NO)c1 [Compound 167667, (R)-2-(4-Fluoro-3,5-dimethyl-phenylamino)-6-(3-methylamino-benzenesulfonylamino)-hexanoic acid hydroxyamide] | 6.23 |
| Cc1cc(N[C@H](C(=O)NO)C(C)C)cc(C)c1F [Compound 167296, (5)-2-(4-Fluoro-3,5-dimethyl-phenylamino)-N-hydroxy-3-methyl-butyramide] | 3.70 |

| Compound | pKi |
| --- | --- |
| Cc1cc(NC(CCCC(F)(F)F)C(=O)NO)cc(C)c1F (stereo not drawn) [Compound 167483, 6,6,6-Trifluoro-2-(4-fluoro-3,5-dimethyl-phenylamino)-hexanoic acid hydroxyamide] | 5.89 |
| CCCCC(Nc1ccc(F)c(C#N)c1)C(=O)NO (stereo not drawn) [Compound 167720, 2-(3-Cyano-4-fluoro-phenylamino)-hexanoic acid hydroxyamide] | 4.93 |
| Cc1cc(N[C@H](CCCCN)C(=O)NO)ccc1F [Compound 167949, (R)-6-Amino-2-(4-fluoro-3-methyl-phenylamino)-hexanoic acid hydroxyamide] | 6.70 |
| Cc1cc(N[C@H](CCCCNC(=O)Cc2ccccc2)C(=O)NO)cc(C)c1F [Compound 167588, (R)-2-(4-Fluoro-3,5-dimethyl-phenylamino)-6-phenylacetylamino-hexanoic acid hydroxyamide] | 5.92 |
| CCCCC(Nc1cc(F)cc(F)c1)C(=O)NO (stereo not drawn) [Compound 167807, 2-(3,5-Difluoro-phenylamino)-hexanoic acid hydroxyamide] | 3.64 |
| Cc1cc(N[C@H](CCCCN(C)Cc2ccc(F)cc2)C(=O)NO)ccc1F [Compound 168147, (R)-6-[(4-Fluoro-benzyl)-methyl-amino]-2-(4-fluoro-3-methyl-phenylamino)-hexanoic acid hydroxyamide] | 6.72 |
| CCCCC(Nc1ccc(OC)cc1)C(=O)NO (stereo not drawn) [Compound 167275, 2-(4-Methoxy-phenylamino)-hexanoic acid hydroxyamide] | 4.06 |
| Cc1cc(N[C@H](CCc2ccccc2)C(=O)NO)cc(C)c1F [Compound 167406, (R)-2-(4-Fluoro-3,5-dimethyl-phenylamino)-N-hydroxy-4-phenyl-butyramide] | 6.29 |
| Cc1cc(CN(CCCC[C@@H](Nc2ccc(F)c(C)c2)C(=O)NO)Cc2ccc(F)c(C)c2)ccc1F [Compound 167966, (R)-6-[Bis-(4-fluoro-3-methyl-benzyl)-amino]-2-(4-fluoro-3-methyl-phenylamino)-hexanoic acid hydroxyamide] | 5.17 |
| Cc1cccc(CNCCCC[C@@H](Nc2cc(C)c(F)c(C)c2)C(=O)NO)c1 [Compound 167698, (R)-2-(4-Fluoro-3,5-dimethyl-phenylamino)-6-(3-methyl-benzylamino)-hexanoic acid hydroxyamide] | 6.80 |
| Cc1cc(N[C@H](CCCCNCc2cc3ccccc3o2)C(=O)NO)ccc1F [Compound 168166, (R)-6-[(Benzofuran-2-ylmethyl)-amino]-2-(4-fluoro-3-methyl-phenylamino)-hexanoic acid hydroxyamide] | 6.74 |
| Cc1cc(N[C@H](CCCCNS(C)(=O)=O)C(=O)NO)cc(C)c1F [Compound 167531, (R)-2-(4-Fluoro-3,5-dimethyl-phenylamino)-6-methanesulfonylamino-hexanoic acid hydroxyamide] | 6.00 |
| CCCCC(Nc1ccc(OC)c(C)c1)C(=O)NO (stereo not drawn) [Compound 167324, 2-(4-Methoxy-3-methyl-phenylamino)-hexanoic acid hydroxyamide] | 4.71 |
| Cc1cc(C(=O)NCCCC[C@@H](Nc2cc(C)c(F)c(C)c2)C(=O)NO)ccc1F [Compound 167551, (R)-4-Fluoro-N-[5-(4-fluoro-3,5-dimethyl-phenylamino)-5-hydroxycarbamoyl-pentyl]-3-methyl-benzamide] | 6.41 |
| CCCCC(Nc1ccccc1)C(=O)NO (stereo not drawn) [Compound 167210, 2-Phenylamino-hexanoic acid hydroxyamide] | 3.69 |
| Cc1cc(N[C@H](CCCCN(Cc2ccc(F)cc2)Cc2ccc(F)cc2)C(=O)NO)ccc1F [Compound 167963, (R)-6-[Bis-(4-fluoro-benzyl)-amino]-2-(4-fluoro-3-methyl-phenylamino)-hexanoic acid hydroxyamide] | 5.96 |
| Cc1cc(N[C@@H](C)C(=O)NO)ccc1F [Compound 167364, (S)-2-(4-Fluoro-3-methyl-phenylamino)-N-hydroxy-propionamide] | 4.06 |
| Cc1cc(N[C@H](CC2CCCCC2)C(=O)NO)cc(C)c1F [Compound 167405, (R)-3-Cyclohexyl-2-(4-fluoro-3,5-dimethyl-phenylamino)-N-hydroxy-propionamide] | 5.83 |
| CCCCC(Nc1ccc(F)c(Cl)c1)C(=O)NO (stereo not drawn) [Compound 167322, 2-(3-Chloro-4-fluoro-phenylamino)-hexanoic acid hydroxyamide] | 4.77 |
| Cc1cc(N[C@H](CCCCNS(=O)(=O)c2cccc(N(C)C)c2)C(=O)NO)cc(C)c1F [Compound 167700, (R)-6-(3-Dimethylamino-benzenesulfonylamino)-2-(4-fluoro-3,5-dimethyl-phenylamino)-hexanoic acid hydroxyamide] | 6.06 |
| Cc1cc(N[C@H](CCCCNCc2cccc([N+](=O)[O-])c2)C(=O)NO)cc(C)c1F [Compound 167737, (R)-2-(4-Fluoro-3,5-dimethyl-phenylamino)-6-(3-nitro-benzylamino)-hexanoic acid hydroxyamide] | 7.15 |
| CCCCC(Nc1ccc(C)cc1)C(=O)NO (stereo not drawn) [Compound 167255, 2-p-Tolylamino-hexanoic acid hydroxyamide] | 3.53 |
